Laboratory results as given in patent publication US20230172930A1, “USE OF COMPLEMENT FACTOR D INHIBITORS ALONE OR IN COMBINATION WITH ANTI-C5 ANTIBODIES FOR TREATMENT OF PAROXYSMAL NOCTURNAL HEMOGLOBINURIA” (Alexion Pharmaceuticals, Inc., priority 2020, published 2023).

Test system: PNH patients with an inadequate response to eculizumab
Assay: Phase 2 study: safety and tolerability (TEAEs)
Text: After completing 24 weeks of treatment, patients entered a long-term extension.

CC(=O)c1nn(CC(=O)N2C[C@H](F)C[C@H]2C(=O)Nc2cccc(Br)n2)c2ccc(-c3cnc(C)nc3)cc12 [Danicopan, danicopan]
discontinuations due to TEAEs (11 patients completing treatment): no discontinuations due to TEAEs
Grade 3 direct bilirubin elevation with grade 1 ALT elevation (Day 70, resolved by Day 77, attributed to breakthrough hemolysis): One patient experienced a Grade 3 direct bilirubin elevation
severe adverse event of pneumonia requiring hospitalization (Day 145, recovered Day 152, relationship to study drug considered unlikely): The second patient experienced a severe adverse event of pneumonia
Number of Patients Reporting a TEAE, % (N=11): (100) %
Abdominal pain, % (TEAE, N=11): (18) %
Contusion, % (TEAE, N=11): (18) %
Cough, % (TEAE, N=11): (18) %
Fatigue, % (TEAE, N=11): (18) %
Headache, % (TEAE, N=11): (27) %
Nasopharyngitis, % (TEAE, N=11): (18) %
Nausea, % (TEAE, N=11): (18) %
Oropharyngeal, % (TEAE, N=11): (18) %
Pain in extremity, % (TEAE, N=11): (18) %
tolerability (danicopan 100-200 mg TID + eculizumab, 24 weeks): generally well tolerated
discontinuation due to serious adverse event (worsening pulmonary hypertension/edema) (of twelve enrolled, considered unlikely related to danicopan): One discontinued after 2 doses
TEAEs mild to moderate in severity (share of treatment TEAEs): 96%
